Tests used:
cerebellar granule cells = test: Intracellular amino acids in primary cultures of cerebellar granule cells; type: cell-based
Description: (§1) After 5 h incubation, the cultures were washed twice with phosphate buffered saline, extracted with perchloric acid and analyzed for amino acids as described for FIG. 5A. To produce dose response curves for lowering of intracellular Glu and Asp (FIG. 6A-B), the procedure was repeated with 4 days (for cerebellar granule cells) and 12 days of incubation (for astrocytes). […] Results are shown in FIGS. 6A-B. Data are expressed as the ratio of Glu, Asp, or GABA to Ala (neurons and astrocytes) or Ser (astrocytes).

[1] = biological target: T1, glutaminase activity in rat brain membranes (Rattus norvegicus, UniProt P13264); test: Inhibition of glutaminase activity in rat brain membranes; type: biochemical; conditions: PO4 conc. = 8 mM; FIG. 2
T1 construct: from tissue; host or cells: rat brain membranes
T1 sequence (P13264 55-674): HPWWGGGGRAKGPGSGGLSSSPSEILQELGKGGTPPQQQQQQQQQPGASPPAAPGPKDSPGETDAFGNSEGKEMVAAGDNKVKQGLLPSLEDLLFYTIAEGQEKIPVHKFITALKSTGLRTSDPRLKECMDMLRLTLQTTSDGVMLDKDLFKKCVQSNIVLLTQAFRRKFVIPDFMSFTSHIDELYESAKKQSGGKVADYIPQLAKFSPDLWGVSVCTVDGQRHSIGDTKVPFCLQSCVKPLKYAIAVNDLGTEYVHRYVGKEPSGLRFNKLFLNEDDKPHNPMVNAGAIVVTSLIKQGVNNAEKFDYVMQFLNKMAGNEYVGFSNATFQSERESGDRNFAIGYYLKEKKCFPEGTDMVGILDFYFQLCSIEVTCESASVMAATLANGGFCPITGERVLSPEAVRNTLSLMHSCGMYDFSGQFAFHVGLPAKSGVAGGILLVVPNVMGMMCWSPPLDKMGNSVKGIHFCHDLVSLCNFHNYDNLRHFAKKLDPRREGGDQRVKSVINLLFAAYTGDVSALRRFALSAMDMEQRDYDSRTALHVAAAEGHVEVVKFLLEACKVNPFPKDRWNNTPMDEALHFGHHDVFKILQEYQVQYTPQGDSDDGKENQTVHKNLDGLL
Description: Aliquots of 10 μL were removed at 0, 85, and 195 min, added to 90 μL 1:3 DMF/H2O, and analyzed for glutamate by HPLC following derivatization with o-phthaldialdehyde and 2-mercaptoethanol (see Lo et al. 1998).

microglia (BV-2) cells = test: Inhibition of microglial glutamate secretion; type: cell-based; conditions: Mus musculus
Description: As described in Wood, glutamate efflux from microglia is dependent on the presence of added external glutamine. […] Therefore, the concentration of glutamate in the culture medium can be used directly as a measure of glutamate production by these cells.
In assaying the invention compounds, microglia (BV-2) cells were cultured using standard methods, as described in Example 4. On the day of the experiment, cells were incubated in glutamine free medium for 1 to 1.5 hours, then glutamine and test compounds, dissolved in glutamine free medium, were added. Aliquots were removed at 2 h and 4 h for glutamate analysis.
Inhibition of Microglial Glutamate Secretion
BV-2 cells were cultured in 24 well plates using Dulbeccos minimal essential medium containing 10% heat inactivated fetal bovine serum, and grown to 70-80% confluency before use. On the day of the experiment, cells were placed in glutamine free medium for 1 to 1.5 hours. […] This solution was used to replace one half of the 0.5 mL culture medium volume at the end of the glutamine free incubation. Aliquots of 10 μL medium were removed at 2 h and 4 h and placed in 96 well microtiter plates with 90 μL DMF/water (1:9) for glutamate analysis.

astrocytes = test: Intracellular amino acids in primary cultures of astrocytes; type: cell-based
Description: as §1, with “To” for “After 5 h incubation, the cultures were washed twice with phosphate buffered saline, extracted with perchloric acid and analyzed for amino acids as described for FIG. 5A. To”

[2] = test system: intestinal epithelial (CACO2) cells; test: Intracellular amino acids in intestinal epithelial cells; type: cell-based
Description: When the cells reached about 80% confluency, fresh glutamine was added to 2 mM. […] After 6.5 h of incubation, cultures were washed twice with phosphate buffered saline and extracted with 100 μL 1M perchloric acid. Extracts were neutralized with 30 μL of 5M potassium carbonate, centrifuged, and analyzed by HPLC for nucleotides, as described in Di Pierro et al. 1995, and for amino acids, as described in Lo et al. 1998. Results are shown in FIG. 5A (amino acids) and FIG. 5B (nucleotides).

[3] = CACO2, 10 nM to 10 μM, 6.5 h, FIG. 5A

SMILES: O=C(Cc1ccccc1)Nc1nnc(CCSCCc2nnc(NC(=O)Cc3ccccc3)s2)s1 [SNX-1770, bis-2′-[5-(phenylacetamido)-1,3,4-thiadiazol-2-yl]ethyl sulfide]
- Effect on intracellular (non-glutamate) amino acids, including serine, glycine, arginine, alanine, taurine (cerebellar granule cells; at 10 μM, cultured cerebellar neurons): no effect
- Lowering of cellular glutamate (cerebellar granule cells; granule cell neurons, partial and specific): ~30%
- Effect on cellular GABA (cerebellar granule cells; granule cells, levels up to 10 μM, FIG. 6C): no effect
- IC50 (cerebellar granule cells; primary cultures of cerebellar granule cells, read-out: IC50, lowering of cellular glutamate): 50 to 100 nM
- Inhibition of glutaminase activity in rat brain membranes [1]: inhibition of glutaminase activity
- inhibition at 10 µM (microglia (BV-2) cells; BV-2, at 10 μM, read-out: Inhibition of glutamate efflux by microglia): ~85%
- IC50 (microglia (BV-2) cells; BV-2 cells, glutamine added, FIG. 4, read-out: IC50, inhibition of glutamate efflux by microglia): 80 to 120 nM
- IC50 (astrocytes; Astrocyte, primary cultures of astrocytes, read-out: IC50, lowering of cellular glutamate): 100 to 300 nM
- Lowering of cellular glutamate (astrocytes; astrocytes, partial and specific): ~30%
- Effect on intracellular (non-glutamate) amino acids, including serine, glycine, arginine, alanine, taurine (astrocytes; at 10 μM, astrocytes): no effect
- Effect on glutamate in cell extracts [2, 3]: dose dependent decrease
- Effect on glycine or taurine in cell extracts [2, 3]: no effect
- Lowering of cellular glutamate ([2]; CACO2 cells, partial and specific): ~30%
- Effect on intracellular (non-glutamate) amino acids, including serine, glycine, arginine, alanine, taurine ([2]; at 10 μM, intestinal epithelial cells): no effect
